The IC50 is the midpoint of a concentration-inhibition curve. Higher therefore signals weaker potency.

Structures are written as SMILES.

The values below come from patent US8895547B2, “Substituted phenyl-oxathiazine derivatives, method for producing them, drugs containing said compounds and the use thereof” (Sanofi, priority 2011, dated 2014).

The test has as its target T1, human 11β-HSD1 (Homo sapiens, UniProt P28845).
T1 construct: host or cells: microsome fraction
As to the kind of experiment: Enzymatic 11beta-HSD1 test (SPA-based detection). In kind it is biochemical. The conditions noted are these: human 11β-HSD1 microsome fraction, [1,2-3H]-cortisone, NADPH, 37° C. 1 hour. On the procedure:
Enzymatic 11beta-HSD1 test:
To measure the activity of the compounds, an SPA-based detection method (Solly et al. 2005) was employed. First of all, 20 μl of the human 11β-HSD1 microsome fraction (0.2 μg of protein), prepared in 50 mM HEPES, 0.1% BSA (w/v), were applied to a plate with 384 wells. The test compounds (0.09 μl) were applied to the assay plate in 100% DMSO. The reaction was started by addition of 20 μl of [1,2-^3H]-cortisone (0.1 μCi/[…]) in assay buffer comprising 25 mM HEPES, 100 mM KCl, 5 mM NaCl, 2 mM MgCl2 and 0.25 mM NADPH. The plate was agitated at 37° C. for 1 hour. At the same time, a stop solution comprising 20 mg/ml SPA-PVT beads, 1.6 mg/ml monoclonal cortisol antibody and 0.01 mM SSR110887 (inhibitor from the Biovitrium patent) in 50 mM HEPES, 1 M NaCl and 1 M KCl was stirred at room temperature. To stop the reaction, 25 μl of the stop solution were added to each well. The plate was agitated gently at room temperature for 1 further hour and then centrifuged at 500 gav for 1 minute, in order that the SPA beads could settle out. The plate was then read in a Wallac-1450-Microbeta unit with a standard SPA program (counting time 1 min/well). The comparative compound was glycyrrhetinic acid.
Protein and radioactive substrate were dispensed with a Biomek FX unit (Beckman Coulter) for handling liquids. The test compounds were added with a Cybi-Well equipped with a 90 nl pin tool (CyBio).
Lit.: Solly S, Mundt S S, Zokian H J, Juy-Fang Ding G, Hermanowski-Vosatka A, Strulovici B and Zheng W. High-throughput screening of 11β-Hydroxysteroid dehydrogenase type 1 in scintillation proximity format. Assay Drug Dev Technol 2005; 3:377-384.

T1 sequence (P28845 whole entry): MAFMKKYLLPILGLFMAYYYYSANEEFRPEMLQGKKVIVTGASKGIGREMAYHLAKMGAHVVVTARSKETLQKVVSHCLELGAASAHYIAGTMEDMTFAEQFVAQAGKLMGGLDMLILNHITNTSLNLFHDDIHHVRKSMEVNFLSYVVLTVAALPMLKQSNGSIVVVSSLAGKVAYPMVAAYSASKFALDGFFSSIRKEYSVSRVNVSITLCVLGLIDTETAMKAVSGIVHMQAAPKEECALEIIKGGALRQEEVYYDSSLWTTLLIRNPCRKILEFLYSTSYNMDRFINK

As to `C[C@H](NC1=NS(=O)(=O)C(c2cccc(Br)c2)C(C)(C)O1)c1ccccc1F` (stereo partly drawn) [Example 27, [5-(3-Bromophenyl)-6,6-dimethyl-4,4-dioxo-5,6-dihydro-4H-4lambda6-[1,4,3]oxathiazin-2-yl]-[(S)-1-(2-fluorophenyl)-ethyl]-amine], the IC50 came to 13 nM.
For `C[C@H](NC1=NS(=O)(=O)C(c2ccc(-c3ccccc3)cc2)C(C)(C)O1)c1ccccc1F` (stereo partly drawn) [Compound 52, (5-Biphenyl-4-yl-6,6-dimethyl-4,4-dioxo-5,6-dihydro-4H-4lambda6-[1,4,3]oxathiazin-2-yl)-[(S)-1-(2-fluorophenyl)ethyl]amine], the IC50 was determined as 64 nM.
On to `C[C@H](NC1=NS(=O)(=O)C(c2cccc(C(=O)N3CCOCC3)c2)C(C)(C)O1)c1ccccc1F` (stereo partly drawn) [Example 192, (3-{2-[(S)-1-(2-fluorophenyl)-ethylamino]-6,6-dimethyl-4,4-dioxo-5,6-dihydro-4H-4lambda6-[1,4,3]oxathiazin-5-yl}-phenyl)-morpholin-4-yl-methanone], for which half-maximal inhibition (IC50) required 252 nM.
`CC(C)(C)c1ccc(C2C(C)(C)OC(N[C@@H](CCO)c3ccccc3F)=NS2(=O)=O)cc1` (stereo partly drawn) [Compound 58, (S)-3-[5-(4-tert-Butylphenyl)-6,6-dimethyl-4,4-dioxo-5,6-dihydro-4H-4lambda6-[1,4,3]oxathiazin-2-ylamino]-3-(2-fluorophenyl)propan-1-ol] gave an IC50 of 21 nM. This IC50 lies about 12-fold lower than the previous one.
With `CN(CCCc1ccc(C2C(C)(C)OC(N[C@@H](CCO)c3ccccc3F)=NS2(=O)=O)cc1)CC(F)F` (stereo partly drawn) [Example 116, (S)-3-[5-(4-{3-[(2,2-Difluoroethyl)-methyl-amino]-propyl}-phenyl)-6,6-dimethyl-4,4-dioxo-5,6-dihydro-4H-4lambda6-[1,4,3]oxathiazin-2-ylamino]-3-(2-fluorophenyl)-propan-1-ol], half-maximal inhibition (IC50) required 5 nM.
Molecule `CC1(C)OC(N[C@@H](CCO)c2ccccc2F)=NS(=O)(=O)C1c1cccc(-c2ccccc2)c1` (stereo partly drawn) [Example 67, (S)-3-(5-Biphenyl-3-yl-6,6-dimethyl-4,4-dioxo-5,6-dihydro-4H-4lambda6-[1,4,3]oxathiazin-2-ylamino)-3-(2-fluorophenyl)-propan-1-ol] returned an IC50 of 15 nM.
Take `CC(=O)c1ccc(C2C(C)(C)OC(N[C@@H](CCO)c3ccccc3F)=NS2(=O)=O)cc1` (some centres unmarked) [Example 144]: 10 nM corresponded to half-maximal inhibition (IC50).
As to `CC(C)(O)c1ccc(C2C(C)(C)OC(N[C@@H](CCO)c3ccccc3F)=NS2(=O)=O)cc1` (stereo partly drawn) [Example 153, (S)-3-(2-fluorophenyl)-3-{5-[4-(1-hydroxy-1-methyl-ethyl)-phenyl]-6,6-dimethyl-4,4-dioxo-5,6-dihydro-4H-4lambda6-[1,4,3]oxathiazin-2-ylamino}-propan-1-ol], half-maximal inhibition (IC50) required 48 nM.
`Cn1nccc1-c1ccc(C2C(C)(C)OC(N[C@@H](CCO)c3ccccc3F)=NS2(=O)=O)cc1` (stereo partly drawn) [Example 111, (S)-3-{6,6-Dimethyl-5-[4-(2-methyl-2H-pyrazol-yl)-phenyl]-4,4-dioxo-5,6-dihydro-4H-4lambda6-[1,4,3]oxathiazin-2-ylamino}-3-(2-fluorophenyl)-propan-1-ol] showed an IC50 of 7 nM.
With `COc1ccc(-c2ccc(C3C(C)(C)OC(N[C@@H](CCO)c4ccccc4F)=NS3(=O)=O)cc2)cc1` (stereo partly drawn) [Example 66, (S)-3-(2-Fluorophenyl)-3-[5-(4′-methoxy-biphenyl-4-yl)-6,6-dimethyl-4,4-dioxo-5,6-dihydro-4H-4lambda6-[1,4,3]oxathiazin-2-ylamino]-propan-1-ol] the figure was 23 nM; with `COc1ccc(-c2ccc(C3(C)C(C)(C)OC(N[C@@H](CCO)c4ccccc4F)=NS3(=O)=O)cc2)cc1` (stereo partly drawn) [Example 81, (S)-3-(2-Fluorophenyl)-3-[5-(4′-methoxy-biphenyl-4-yl)-5,6,6-trimethyl-4,4-dioxo-5,6-dihydro-4H-4lambda6-[1,4,3]oxathiazin-2-ylamino]-propan-1-ol], 10 nM.
As for `CC1(C)OC(N[C@@H](CCO)c2ccccc2F)=NS(=O)(=O)C1(C)c1ccc(-c2ccc(F)cc2)cc1` (stereo partly drawn) [Example 80, (S)-3-[5-(4′-Fluorobiphenyl-4-yl)-5,6,6-trimethyl-4,4-dioxo-5,6-dihydro-4H-4lambda6-[1,4,3]oxathiazin-2-ylamino]-3-(2-fluorophenyl)-propan-1-ol], the figure is 7 nM; as for `COc1ccccc1-c1ccc(C2C(C)(C)OC(N[C@@H](CCO)c3ccccc3F)=NS2(=O)=O)cc1` (stereo partly drawn) [Example 94, (S)-3-(2-Fluorophenyl)-3-[5-(2′-methoxy-biphenyl-4-yl)-6,6-dimethyl-4,4-dioxo-5,6-dihydro-4H-4lambda6-[1,4,3]oxathiazin-2-ylamino]-propan-1-ol], 14 nM; as for `CC1(C)OC(N[C@@H](CCO)c2ccccc2F)=NS(=O)(=O)C1c1ccc(-c2cncnc2)cc1` (stereo partly drawn) [Example 90, (S)-3-[6,6-Dimethyl-4,4-dioxo-5-(4-pyrimidin-5-yl-phenyl)-5,6-dihydro-4H-4lambda6-[1,4,3]oxathiazin-2-ylamino]-3-(2-fluorophenyl)-propan-1-ol], 7 nM.
The molecule `CC1(C)OC(N[C@@H](CCO)c2ccccc2F)=NS(=O)(=O)C1c1ccc(C(F)(F)F)cc1` (stereo partly drawn) [Example 102, (S)-3-[6,6-Dimethyl-4,4-dioxo-5-(4-trifluormethyl-phenyl)-5,6-dihydro-4H-4lambda6-[1,4,3]oxathiazin-2-ylamino]-3-(2-fluorophenyl)-propan-1-ol] registered an IC50 of 6 nM.
With `CC1(C)OC(N[C@@H](CCO)c2ccccc2)=NS(=O)(=O)C1c1cccc(C(F)(F)F)c1` (stereo partly drawn) [Compound 21, (S)-3-[6,6-Dimethyl-4,4-dioxo-5-(3-trifluoromethylphenyl)-5,6-dihydro-4H-4lambda6-[1,4,3]oxathiazin-2-ylamino]-3-phenylpropan-1-ol], the IC50 is 22 nM.
In the case of `CC1(C)OC(N[C@@H](CCO)c2ccccc2)=NS(=O)(=O)C1c1cccc(-c2ccccc2)c1` (stereo partly drawn) [Example 8, (S)-3-(5-Biphenyl-3-yl-6,6-dimethyl-4,4-dioxo-5,6-dihydro-4H-4lambda6-[1,4,3]oxathiazin-2-ylamino)-3-phenyl-propan-1-ol], the IC50 was 22 nM.
Molecule `Cc1ccccc1C1C(C)(C)OC(N[C@@H](CCO)c2ccccc2)=NS1(=O)=O` (stereo partly drawn) [Example 16, (S)-3-(6,6-Dimethyl-4,4-dioxo-5-o-tolyl-5,6-dihydro-4H-4lambda6-[1,4,3]oxathiazin-2-ylamino)-3-phenyl-propan-1-ol] yielded an IC50 of 11 nM. Against the preceding molecule, the IC50 is about 2-fold lower.
As to `C[C@H](NC1=NS(=O)(=O)C(c2ccc(C3CCN(C)CC3)cc2)C(C)(C)O1)c1ccccc1F` (stereo partly drawn) [Example 159, {6,6-Dimethyl-5-[4-(1-methyl-piperidin-4-yl)-phenyl]-4,4-dioxo-5,6-dihydro-4H-4lambda6-[1,4,3]oxathiazin-2-yl}-[(S)-1-(2-fluorophenyl)-ethyl]-amine], the IC50 came to 108 nM.
`CC1(C)OC(N[C@@H](CCO)c2ccccc2)=NS(=O)(=O)C1(C)c1cccc(-c2cncnc2)c1` (stereo partly drawn) [Compound 40, (S)-3-Phenyl-3-[5,6,6-trimethyl-4,4-dioxo-5-(3-pyrimidin-5-ylphenyl)-5,6-dihydro-4H-4lambda6-[1,4,3]oxathiazin-2-ylamino]propan-1-ol] showed an IC50 of 15 nM.
